According to PMC10037499, “High-Throughput Screen Reveals the Structure–Activity Relationship of the Antimicrobial Lasso Peptide Ubonodin” (ACS Central Science, 2023):
Where a SMILES comes first, the peptide text is derived from it.

Legend:
E. coli MC1061 = assay: Spot dilution assay of E. coli producing the ubonodin variant from pUboABC; type: cell-based; settings: biological duplicates
Procedure, shortened: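 E. coli MC1061 carrying the plasmids was grown at 37 °C in LB with 100 μg/mL ampicillin to OD600 0.3, then induced with 100 μM IPTG. Samples taken before induction and at later timepoints were PBS-washed, spotted as ten-fold dilutions on ampicillin/0.2% glucose LB plates, and imaged after 16 h at 37 °C.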

B. cenocepacia AU0756 = tested on: B. cenocepacia AU0756
Procedure, shortened: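 Ubonodin variants were tested by broth microdilution following CLSI guidelines against clinical Burkholderia cenocepacia isolates AU0756 and AU24362.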

[1] = tested on: RNA polymerase (RNAP) in E. coli MC1061; assay: High-throughput growth-based screen with NGS (enrichment value) for RNA polymerase inhibition; type: cell-based; parameters: key to Experimental observation (enrichment observed in the screen): Dropout: Many variants inhibit RNAP so strongly that they cannot be detected by NGS after IPTG induction (referred to as dropout variants); settings: Table S4; variants whose MICs were tested
Procedure, shortened: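 E. coli MC1061 carrying ubonodin single/double variant plasmid libraries was grown and induced with 10 µM or 100 µM IPTG; surviving colonies were sequenced by NGS. Enrichment value = log2 of variant frequency post-IPTG over frequency in the cloning transformation library; depletion indicates RNAP inhibition.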

CC[C@H](C)[C@@H]1NC(=O)[C@H](CO)NC(=O)CNC(=O)[C@H](CC(=O)O)NC(=O)CNC(=O)CNC(=O)CC[C@@H](C(=O)N[C@@H](Cc2ccc(O)cc2)C(=O)N[C@@H](Cc2ccccc2)C(=O)N[C@@H](CCSC)C(=O)N[C@@H](CCCNC(=N)N)C(=O)N2CCC[C@H]2C(=O)N[C@@H](CCSC)C(=O)N[C@@H](Cc2c[nH]cn2)C(=O)N[C@H](C(=O)N[C@@H](Cc2c[nH]cn2)C(=O)N[C@@H](CC(=O)O)C(=O)N[C@@H](Cc2c[nH]c3ccccc23)C(=O)N[C@@H](CCC(N)=O)C(=O)N[C@H](C(=O)N[C@@H](CCSC)C(=O)N[C@@H](CC(=O)O)C(=O)N[C@@H](CO)C(=O)NCC(=O)N[C@@H](Cc2ccc(O)cc2)C(=O)N[C@@H](Cc2ccc(O)cc2)C(=O)NCC(=O)O)[C@@H](C)CC)[C@@H](C)CC)NC(=O)CNC1=O [A7G N11M] (HELM PEPTIDE1{G.G.D.G.S.I.G.E.Y.F.M.R.P.M.H.I.H.D.W.Q.I.M.D.S.G.Y.Y.G}$PEPTIDE1,PEPTIDE1,1:R1-8:R3$$$V2.0)
Time after induction at which the toxic effect was observed (E. coli MC1061; pUboABC backbone): 6 h | Inhibits Growth (E. coli MC1061; variant in pUboABC backbone in E. coli MC1061, induction with 100 μM IPTG, ten-fold serial dilutions): Yes | B. cenocepacia AU0756 MIC (B. cenocepacia AU0756): >8 µM | Experimental observation (enrichment observed in the screen) [1]: Dropout
